This is an account of results in ChEMBL document CHEMBL1139116, “Discovery and SAR of isonicotinamide BACE-1 inhibitors that bind beta-secretase in a N-terminal 10s-loop down conformation” (Bioorg Med Chem Lett, 2007).

The data set is described as follows: Partition coefficient, log P of the compound. The note with it: octanol/water. It is filed as physicochemical.

Broadly, the logP is the decadic logarithm of the partition coefficient of the neutral form, usually between octanol and water.

Regarding `CC1CC1CNc1cc(C(=O)N[C@@H](Cc2ccccc2)[C@@H](N)CCC(F)(F)F)cc(N(C)S(C)(=O)=O)n1` (mixture of isomers), the logP was over 3.5.

Compound `CCCC[C@H](N)[C@H](Cc1ccccc1)NC(=O)c1cc(NCC2CC2C)nc(N(C)S(C)(=O)=O)c1` (mixture of isomers) had a logP of over 2.51.
